Data: PMC11699130, “Design and synthesis of antiproliferative 2-oxoindolin-3-ylidenes incorporating urea function with potential VEGFR-2 inhibitory properties” (Scientific Reports, 2025)

Experiments:
Format in all cases: cell-based
[1] = test system: PaCa2 (pancreatic) carcinoma cell line; experiment: MTT antiproliferation assay, PaCa2; details: for IC50: PaCa-2, MTT, 72 h incubation, PaCa2 (pancreatic), read-out: IC50, μM ± SD, PaCa2; for SI (safety/selectivity index), PaCa2: in brackets after IC50, normal RPE1 relative to PaCa2
Description: (§1) Antiproliferation properties against normal RPE1 (human immortalized retinal pigment epithelial) cell line were also considered for safety/selectivity index (SI) determination of each respective agent synthesized (Table 1, Supplementary Figs. S61–S64). […]
(§2) All the biological studies conducted obey the standards and approved by the Research Ethics Committee, National Research Centre, Egypt (associated with project ID:
(§3) Antiproliferation properties
(§4) The synthesized compounds 12a‒j were screened for their antiproliferation properties against HCT116 (colon), MCF7 (breast) and PaCa2 (pancreatic) cancer cell lines by the standard mitochondrial dependent reduction of yellow MTT [3 -(4,5-dimethylthiazol-2- […]
(§5) considered as standard reference/drug. Cells were suspended in DMEM medium for MCF7, PaCa-2 and McCoy’s 5A for HCT116 in addition to 1% antibiotic–antimycotic mixture (10000 μg ml-1 potassium penicillin, 10000 μg ml-1 streptomycin sulfate and 25 μg ml-1 amphotericin B), 10% fetal bovine serum and 1% L-glutamine at 37 °C, under 5% CO2 and 95% humidity. Cells were seeded at concentration of 30000 cells per well in fresh complete growth medium in 96-well tissue culture microtiter plates for 24 h. Media […]
(§6) was aspirated, fresh complete medium was added and cells were incubated with different concentrations of the tested compound to give a final concentration of [50, 25, 12.5 and 6.25 μM “in addition to 3.125, 1.56 and 0.78 μM in case of high potent a nalogs”). 0.5% DMSO was used as a negative control. Triplicate wells were prepared for each individual dose. After 72 h of incubation, medium was aspirated, 40 μl MTT salt (2.5 mg ml -1) was added to each well and incubated for further 4 h at 37 °C. To stop the reaction and dissolve the formed crystals, 150 μl of 10% sodium dodecyl sulfate (SDS) in deionized water was added to each well and incubated overnight at 37 °C. The absorbance was then measured at 570 nm and a reference wavelength of 595 nm.
(§7) Data were collected as mean values for experiments performed in triplicates for each individual dose which had been measured by MTT assay. Control experiments did […]
(§8) The cell surviving fraction was calculated according to the following equation.
(§9) Surviving fraction = Opticaldensity(O.D.)oftreatedcells
(§10) The agents synthesized were also tested against RPE1 (normal human immortalized retinal pigment epithelial cell line) cell (in DMEM -F12 medium) to determine the toxicity/selectivity towards normal cells relative to the cancer cell lines […]
(§11) The IC50 (concentration required to produce 50% inhibition of cell growth compared to the control experiment) was determined using Graph-Pad PRISM version-5 software. Statistical calculations for determination of the mean and standard division (SD) values were determined by SPSS 16 so ftware. The observed anti-proliferative properties are presented in Table 1 ( Supplementary Figs. S61‒S64). […]

[2] = test system: MCF7 (breast) carcinoma cell line; experiment: MTT antiproliferation assay, MCF7; details: for IC50: Homo sapiens, MTT, 72 h incubation, MCF7 (breast), read-out: IC50, μM ± SD, MCF7; for SI (safety/selectivity index), MCF7: in brackets after IC50, normal RPE1 relative to MCF7
Description: as §1, §2, §3, §4, §5, §6, §7, §8, §9, §10, §11

[3] = test system: RPE1 (human immortalized retinal pigment epithelial) cell line; experiment: MTT assay on normal cells for safety/selectivity; details: RPE-1, read-out: IC50, μM ± SD, RPE1
Description: as §1, §6, §7, §8, §9, §10, §11

[4] = test system: HCT116 (colon) carcinoma cell line; experiment: MTT antiproliferation assay, HCT116; details: for IC50: Homo sapiens, HCT-116, MTT, 72 h incubation, HCT116 (colon), read-out: IC50, μM ± SD, HCT116; for SI (safety/selectivity index), HCT116: in brackets after IC50, normal RPE1 relative to HCT116
Description: as §1, §2, §3, §4, §5, §6, §7, §8, §9, §10, §11

VEGFR-2 = target: T1, VEGFR-2 (Homo sapiens, UniProt P35968); experiment: VEGFR-2 inhibitory properties by western blotting; details: for Relative quantification (RQ): VEGFR-2 western blot band, normalised to beta actin, at 10 μM, control RQ 3.290; for inhibition at 10 µM: western blotting, read-out: % Inhibition against VEGFR-2
T1 construct: lysed cells; endogenous in cells
Description: VEGFR-2 inhibitory properties […]
standard/drug) was determined at 10 μM by the western blotting technique obeying the manufacturer’s instruction (Santa Cruz Biotechnology, Inc .).5
Protein extraction procedure
The ReadyPrepTM protein extraction kit (total protein) provided by Bio-Rad Inc.
(Catalog #163-2086) employed by the manufacturer, was added to each sample of the lysed cells. Bradford Protein Assay Kit (SK3041) for quantitative protein analysis was provided by Bio-basic Inc. (Markham Ontario L3R 8T4 Canada). A Bradford assay was performed according to manufacturer’s instructions to determine protein concentration in each sample. 20 μg protein concentration of each sample was then loaded with an equal volume of 2x Laemmli sample buffer containing 4% SDS, 10% 2-mercaptoehtanol, 20% glycerol, 0.004% bromophenol blue and 0.125 M Tris HCl. The pH was checked and brought to 6.8. Each previous mixture was boiled at 95°C for 5 min to ensure denaturation of protein before loading on polyacrylamide gel electrophoresis.
Protein separation by electrophoresis
Samples were separated on a polyacrylamide gel; the procedure was abbreviated as SDS-PAGE form Sodium Dodecyl Sulfate PolyAcrylamide Gel Electrophoresis, which is a standard technique for separating proteins according to their molecular weight.
Polyacrylamide gels were performed using TGX Stain-Free™ FastCast™ Acrylamide Kit (SDS-PAGE), which was provided by Bio-Rad Laboratories inc Cat # 161-0181. The SDS-PAGE TGX Stain-Free FastCast was prepared according to manufacturer’s […]
Protein blotting (transfer of proteins from the gel to the membrane)
The gel was assembled in transfer sandwich from below to above (filter paper, PVDF membrane, gel and filter paper). The sandwich was placed in the transfer tank with 1x transfer buffer, which is composed of 25 mM Tris and 190 mM glycine and 20% methanol. Then, the blot was run for 7 min . at 25 V to allow protein bands transfer from gel to membrane using BioRad Trans-Blot Turbo.
The membrane was blocked in tris -buffered saline with Tween 20 (TBST) buffer and 3% bovine serum albumin (BSA) at room temperature for 1 hr. The components of blocking […]
buffer were as follow; 20 mM Tris pH 7.5, 150 mM NaCl, 0.1% Tween 20 and 3% bovine serum albumin (BSA).
Incubation with the primary antibody
Primary antibody of VEGFR2 was purchased. Primary antibody was diluted in TBST according to manufactured instructions.

T1 sequence (P35968 20-1356): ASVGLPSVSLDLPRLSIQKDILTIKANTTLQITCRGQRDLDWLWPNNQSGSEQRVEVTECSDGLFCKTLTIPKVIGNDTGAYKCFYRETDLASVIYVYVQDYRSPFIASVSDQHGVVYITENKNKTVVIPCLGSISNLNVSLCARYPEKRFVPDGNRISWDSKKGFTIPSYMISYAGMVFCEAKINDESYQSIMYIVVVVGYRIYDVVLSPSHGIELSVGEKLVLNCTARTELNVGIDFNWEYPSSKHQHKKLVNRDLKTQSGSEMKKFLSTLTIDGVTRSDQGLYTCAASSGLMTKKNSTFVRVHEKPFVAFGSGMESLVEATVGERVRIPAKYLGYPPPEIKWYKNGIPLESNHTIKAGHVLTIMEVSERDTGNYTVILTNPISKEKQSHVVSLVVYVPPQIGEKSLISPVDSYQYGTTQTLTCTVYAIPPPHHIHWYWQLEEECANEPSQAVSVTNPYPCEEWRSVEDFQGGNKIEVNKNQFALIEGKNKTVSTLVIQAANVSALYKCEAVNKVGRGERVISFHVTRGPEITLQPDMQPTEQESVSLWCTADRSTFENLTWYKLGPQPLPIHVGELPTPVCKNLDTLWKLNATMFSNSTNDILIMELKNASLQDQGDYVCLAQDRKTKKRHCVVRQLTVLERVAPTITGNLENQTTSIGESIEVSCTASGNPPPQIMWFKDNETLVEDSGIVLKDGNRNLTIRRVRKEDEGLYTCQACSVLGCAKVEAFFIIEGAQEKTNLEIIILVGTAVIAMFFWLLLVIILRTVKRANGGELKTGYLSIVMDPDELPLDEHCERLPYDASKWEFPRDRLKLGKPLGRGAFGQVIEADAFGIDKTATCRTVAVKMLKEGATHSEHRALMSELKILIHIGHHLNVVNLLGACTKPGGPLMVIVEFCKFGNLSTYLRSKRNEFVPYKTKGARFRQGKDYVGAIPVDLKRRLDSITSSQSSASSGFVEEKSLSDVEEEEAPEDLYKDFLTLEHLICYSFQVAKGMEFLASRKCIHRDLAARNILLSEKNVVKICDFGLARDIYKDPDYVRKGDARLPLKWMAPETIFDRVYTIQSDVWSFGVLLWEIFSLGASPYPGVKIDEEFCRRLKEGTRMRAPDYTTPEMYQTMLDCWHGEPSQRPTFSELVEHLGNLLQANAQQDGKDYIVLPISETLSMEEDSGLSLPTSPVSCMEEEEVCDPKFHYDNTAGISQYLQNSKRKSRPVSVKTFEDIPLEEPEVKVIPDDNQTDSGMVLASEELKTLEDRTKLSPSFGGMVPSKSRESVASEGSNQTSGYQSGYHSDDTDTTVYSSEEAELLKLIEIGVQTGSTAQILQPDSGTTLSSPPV

| SMILES | IC50 [1] [µM] | SI (safety/selectivity index), PaCa2 [1] | IC50 [2] [µM] | SI (safety/selectivity index), MCF7 [2] | IC50 [3] [µM] | IC50 [4] [µM] | SI (safety/selectivity index), HCT116 [4] | Relative quantification (RQ) (VEGFR-2) | inhibition at 10 µM (VEGFR-2) [%] | fold more potent than sunitinib ([1]; PaCa2, ratio of IC50 values) |
| --- | --- | --- | --- | --- | --- | --- | --- | --- | --- | --- |
| O=C(Nc1ccccc1)Nc1cccc(C(=O)/C=C2/C(=O)Nc3ccccc32)c1 [Compound 12a, (E)-1-{3-[2-(2-Oxoindolin-3-ylidene)acetyl]phenyl}-3-phenylurea] | 5.24 ± 0.502 | 2.606 | 3.13 ± 0.395 | 4.355 | 13.6 ± 0.659 | 13.3 ± 1.35 | 1.022 | 0.746 | 77.3 | – |
| O=C(Nc1ccccc1)Nc1ccc(C(=O)/C=C2/C(=O)Nc3ccccc32)cc1 [Compound 12b, (E)-1-{4-[2-(2-Oxoindolin-3-ylidene)acetyl]phenyl}-3-phenylurea] | 4.09 ± 0.172 | 2.043 | 2.08 ± 0.126 | 4.014 | 8.36 ± 0.374 | 6.54 ± 0.452 | 1.277 | 0.422 | 87.2 | – |
| O=C(Nc1ccccc1)Nc1cccc(C(=O)/C=C2/C(=O)Nc3ccc(F)cc32)c1 [Compound 12c, (E)-1-{3-[2-(5-Fluoro-2-oxoindolin-3-ylidene)acetyl]phenyl}-3-phenylurea] | 6.8 ± 0.514 | 3.133 | 5.81 ± 0.629 | 3.669 | 21.31 ± 0.026 | 14.4 ± 1.47 | 1.483 | 0.472 | 85.6 | – |
| O=C(Nc1ccccc1)Nc1ccc(C(=O)/C=C2/C(=O)Nc3ccc(F)cc32)cc1 [Compound 12d, (E)-1-{4-[2-(5-Fluoro-2-oxoindolin-3-ylidene)acetyl]phenyl}-3-phenylurea] | 4.96 ± 0.201 | 2.214 | 2.9 ± 0.3 | 3.779 | 11 ± 0.429 | 5.78 ± 0.593 | 1.898 | 0.491 | 85.1 | – |
| O=C(Nc1ccccc1)Nc1cccc(C(=O)/C=C2/C(=O)Nc3ccc(Cl)cc32)c1 [Compound 12e, (E)-1-{3-[2-(5-Chloro-2-oxoindolin-3-ylidene)acetyl]phenyl}-3-phenylurea] | 7 ± 1.11 | 2.087 | 3.91 ± 0.78 | 3.738 | 14.6 ± 0.316 | 11.9 ± 2.53 | 1.229 | 0.538 | 83.6 | – |
| O=C(Nc1ccccc1)Nc1ccc(C(=O)/C=C2/C(=O)Nc3ccc(Cl)cc32)cc1 [Compound 12f, (E)-1-{4-[2-(5-Chloro-2-oxoindolin-3-ylidene)acetyl]phenyl}-3-phenylurea] | 5.81 ± 0.63 | 1.845 | 3.41 ± 0.761 | 3.144 | 10.7 ± 0.766 | 6.58 ± 0.923 | 1.630 | 0.517 | 84.3 | – |
| O=C(Nc1ccccc1)Nc1ccc(C(=O)/C=C2/C(=O)Nc3ccc(Br)cc32)cc1 [Compound 12g, (E)-1-{4-[2-(5-Bromo-2-oxoindolin-3-ylidene)acetyl]phenyl}-3-phenylurea] | 5.32 ± 0.228 | 2.572 | 4.41 ± 0.544 | 3.101 | 13.7 ± 0.85 | 6.29 ± 0.912 | 2.173 | 0.500 | 84.8 | – |
| Cc1ccc2c(c1)/C(=C\C(=O)c1ccc(NC(=O)Nc3ccccc3)cc1)C(=O)N2 [Compound 12h, (E)-1-{4-[2-(5-Methyl-2-oxoindolin-3-ylidene)acetyl]phenyl}-3-phenylurea] | 4 ± 0.369 | 2.128 | 2.07 ± 0.081 | 4.107 | 8.5 ± 0.466 | 5.58 ± 0.636 | 1.523 | 0.475 | 85.6 | about 3.34 fold |
| COc1ccc2c(c1)/C(=C\C(=O)c1cccc(NC(=O)Nc3ccccc3)c1)C(=O)N2 [Compound 12i, (E)-1-{3-[2-(5-Methoxy-2-oxoindolin-3-ylidene)acetyl]phenyl}-3-phenylurea] | 7.64 ± 0.08 | 3.952 | 8.96 ± 0.767 | 3.370 | 30.2 ± 0.948 | 27.2 ± 2.95 | 1.111 | 0.634 | 80.7 | – |
| COc1ccc2c(c1)/C(=C\C(=O)c1ccc(NC(=O)Nc3ccccc3)cc1)C(=O)N2 [Compound 12j, (E)-1-{4-[2-(5-Methoxy-2-oxoindolin-3-ylidene)acetyl]phenyl}-3-phenylurea] | 4.49 ± 0.785 | 1.917 | 1.69 ± 0.067 | 5.090 | 8.6 ± 0.334 | 6.15 ± 0.539 | 1.400 | 0.678 | 79.4 | – |
| CCN(CC)CCNC(=O)c1c(C)[nH]c(/C=C2\C(=O)Nc3ccc(F)cc32)c1C [Sunitinib, reference compound] | 13.34 ± 0.091 | – | 11.8 ± 0.937 | – | – | 9.57 ± 0.949 | – | – | – | – |
